According to patent publication US20080004290A1, “Anti-Cancer Agents” (THE UNIVERSITY OF QUEENSLAND, priority 2003, published 2008):
Read-outs that look alike come from different tables or passages of the source.

How the values were obtained:
Type in all cases: cell-based, human
MM96L melanoma cells = assay: Cell survival assay (clonogenic survival, SRB); details: for IC50: Homo sapiens, MM96L; for SI (Selectivity Index = IC50 (NFF)/IC50 (MM96L)): NFF vs MM96L; for Selectivity Index MM96L: Table 13, S enantiomer, IC50(NFF)/IC50(cancer cell line)
Procedure, shortened: (§1)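 Cells (5×10^3/well, RPMI 1640 with 10% FCS) treated 24 h with compound at 0.01-10 μg/mL, then washed and grown 72 h drug-free at 37 °C, 5% CO2. Survival read by SRB staining after methylated-spirit fixation, absorbance 564 nm.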

H520 cells = assay: Cell survival assay (SRB); details: for IC50: Homo sapiens, NCI-H520, read-out: Cytoselectivities (nM) H520; for Selectivity Index H520: Table 13, S enantiomer, IC50(NFF)/IC50(cancer cell line)
Experimental: (§2) Cell Lines and Culture Medium. All cell lines used in this study have been described previously (Parsons et al., 1986; Todaro et al., 1980; Glenn et al., 2004). All cell lines were cultured in 10% heat-inactivated foetal calf serum (CSL, Australia) in RPMI 1640 medium supplemented with 100 U/mL penicillin, 100 μg/mL streptomycin, and 3 mM HEPES at 5% CO2, 99% humidity at 37° C. Primary human fibroblasts were obtained from neonatal foreskins and cultured in the above medium. Routine mycoplasma tests were performed using Hoechst stain^i and were always negative.
(§3) Cell Survival Assay. Cells were plated into 96-well microtitre plates at 5×10^3 cells/well, and allowed to adhere overnight. Test compounds were added to culture medium at the indicated concentrations, and plates incubated in the above conditions for 24 hours. Following this incubation period, compounds and media were removed, and replaced with fresh culture medium. Cells were then grown for a further 72 hours before assay using sulforhodamine B (SRB; Sigma, St. Louis, Mo.) as previously described. Briefly, the culture medium was removed from the 96-well microtitre plates and the plates washed twice with phosphate buffered saline (PBS), before the cells were fixed with methylated spirits for 15 minutes. The plates were then rinsed with tap water and the fixed cells stained with 50 μL/well of SRB solution (0.4% sulforhodamine B (w/v) in 1% (v/v) acetic acid) over a period of 1 hour. The SRB solution was then removed from the wells and the plates rapidly washed two times with 1% (v/v) acetic acid. Protein bound dye was then solubilised with the addition of 100 μL of 10 mM unbuffered Tris, and incubated for 15 min at 25° C. Plates were then read at 564 nm on a VERSA max tunable microplate reader (Molecular Devices, Sunnyvale, Calif.).

HOP62 cells = assay: Cell survival assay (SRB); details: for IC50: Homo sapiens, HOP-62, HOP62 (lung), read-out: Cytoselectivities (nM) HOP62; for Selectivity Index HOP62: Table 13, S enantiomer, IC50(NFF)/IC50(cancer cell line)
Experimental: as §2, §3

HT29 cells = assay: Cell survival assay (SRB); details: for IC50: Homo sapiens, HT-29, HT29 (colon), read-out: Cytoselectivities (nM) HT29; for Selectivity Index HT29: Table 13, S enantiomer, IC50(NFF)/IC50(cancer cell line)
Experimental: as §2, §3

A549 cells = assay: Cell survival assay (SRB); details: for IC50: Homo sapiens, A549 (lung), read-out: Cytoselectivities (nM) A549; for Selectivity Index A549: Table 13, S enantiomer, IC50(NFF)/IC50(cancer cell line)
Experimental: as §2, §3

PC-3 cells = assay: Cell survival assay (SRB); details: for IC50: Homo sapiens, PC-3, read-out: Cytoselectivities (nM) PC-3; for Selectivity Index PC-3: Table 13, S enantiomer, IC50(NFF)/IC50(cancer cell line)
Experimental: as §2, §3

Col208 cells = assay: Cell survival assay (SRB); details: for IC50: Homo sapiens, Col208 (colon), read-out: Cytoselectivities (nM) Col208; for Selectivity Index Col208: Table 13, S enantiomer, IC50(NFF)/IC50(cancer cell line)
Experimental: as §2, §3

SK-MEL-5 cells = assay: Cell survival assay (SRB); details: for IC50: Homo sapiens, SK-MEL-5, read-out: Cytoselectivities (nM) SK-MEL-5; for Selectivity Index SK-MEL-5: Table 13, S enantiomer, IC50(NFF)/IC50(cancer cell line)
Experimental: as §2, §3

T-47D cells = assay: Cell survival assay (SRB); details: for IC50: Homo sapiens, T47D, read-out: Cytoselectivities (nM) T-47D; for Selectivity Index T-47D: Table 13, S enantiomer, IC50(NFF)/IC50(cancer cell line)
Experimental: as §2, §3

[1] = system: DU145 prostate cancer cells; assay: Cell survival assay (SRB); details: for IC50: Homo sapiens, DU-145, DU145 (prostate), read-out: Cytoselectivities (nM) DU145; for Selectivity Index DU145: Table 13, S enantiomer, IC50(NFF)/IC50(cancer cell line)
Experimental: as §2, §3
(§4) For comparison their results are also shown for MM96L and NFF cell lines.

JAM ovarian cancer cells = assay: Cell survival assay (SRB); details: for IC50: Homo sapiens, read-out: Cytoselectivities (nM) JAM; for Selectivity Index JAM: Table 13, S enantiomer, IC50(NFF)/IC50(cancer cell line)
Experimental: as §2, §3, §4

[2] = system: MCF-7 breast cancer cells; assay: Cell survival assay (SRB); details: for IC50: Homo sapiens, MCF7, MCF-7 (breast), read-out: Cytoselectivities (nM) MCF-7; for Selectivity Index MCF-7: Table 13, S enantiomer, IC50(NFF)/IC50(cancer cell line)
Experimental: as §2, §3, §4

SkMel28 melanoma cells = assay: Cell survival assay (SRB); details: for IC50: Homo sapiens, SK-MEL-28 (melanoma), read-out: Cytoselectivities (nM) SK-MEL-28; for Selectivity Index SK-MEL-28: Table 13, S enantiomer, IC50(NFF)/IC50(cancer cell line)
Experimental: as §2, §3, §4

[3] = system: CI-80-13S ovarian cancer cells; assay: Cell survival assay (SRB); details: for IC50: Homo sapiens, read-out: Cytoselectivities (nM) CI80-13S; for Selectivity Index CI80-13S: Table 13, S enantiomer, IC50(NFF)/IC50(cancer cell line)
Experimental: as §2, §3, §4

[4] = system: NFF, neonatal foreskin fibroblasts; assay: Cell survival assay (clonogenic survival, SRB), normal cells; details: Homo sapiens, Fibroblast, NFF normal fibroblasts; 24 h with compound, further 72 h growth, SRB; read-out: IC50 (uM) NFF
Procedure, shortened: as §1

[5] = MM96L melanoma, 24 h with compound, further 72 h growth, SRB, read-out: IC50 (uM) MM96L
[6] = Table 12, read-out: Cytoselectivities (nM) MM96L
[7] = most preferred compounds, exemplary examples, read-out: potency of IC50 against the MM96 melanoma cells

SMILES: O=C(/C=C/c1ccccc1)N[C@@H](CCCCCC(=O)NO)C(=O)Nc1cccc2cccnc12 [Example 146]
- IC50 (MM96L melanoma cells; [5]): 0.021 µM
- IC50 (MM96L melanoma cells; [6]): 0.02 µM
- IC50 (MM96L melanoma cells; [7]): ≤ 0.5 µM
- SI (Selectivity Index = IC50 (NFF)/IC50 (MM96L)) (MM96L melanoma cells): 58.9
- Selectivity Index MM96L (MM96L melanoma cells): 63
- IC50 (H520 cells): 27 nM
- Selectivity Index H520 (H520 cells): 46
- IC50 (HOP62 cells): 65 nM
- Selectivity Index HOP62 (HOP62 cells): 19
- IC50 (HT29 cells): 99 nM
- Selectivity Index HT29 (HT29 cells): 13
- IC50 (A549 cells): 73 nM
- Selectivity Index A549 (A549 cells): 17
- IC50 (PC-3 cells): 109 nM
- Selectivity Index PC-3 (PC-3 cells): 11
- IC50 (Col208 cells): 141 nM
- Selectivity Index Col208 (Col208 cells): 9
- IC50 (SK-MEL-5 cells): 29 nM
- Selectivity Index SK-MEL-5 (SK-MEL-5 cells): 43
- IC50 (T-47D cells): 20 nM
- Selectivity Index T-47D (T-47D cells): 63
- IC50 [1]: 30 nM
- Selectivity Index DU145 [1]: 41
- IC50 (JAM ovarian cancer cells): 49 nM
- Selectivity Index JAM (JAM ovarian cancer cells): 25
- IC50 [2]: 17 nM
- Selectivity Index MCF-7 [2]: 71
- IC50 (SkMel28 melanoma cells): 37 nM
- Selectivity Index SK-MEL-28 (SkMel28 melanoma cells): 34
- IC50 [3]: 28 nM
- Selectivity Index CI80-13S [3]: 44
- IC50 [4]: 1.24 µM

SMILES: O=C(CCCCC[C@H](NC(=O)OCc1ccccc1)C(=O)Nc1cccc2cccnc12)NO [Example 148]
- IC50 (MM96L melanoma cells; [5]): 0.043 µM
- IC50 (MM96L melanoma cells; [6]): 0.108 µM
- IC50 (MM96L melanoma cells; [7]): ≤ 0.5 µM
- SI (Selectivity Index = IC50 (NFF)/IC50 (MM96L)) (MM96L melanoma cells): 10.5
- Selectivity Index MM96L (MM96L melanoma cells): 4
- IC50 (H520 cells): 118 nM
- Selectivity Index H520 (H520 cells): 4
- IC50 (HOP62 cells): 226 nM
- Selectivity Index HOP62 (HOP62 cells): 2
- IC50 (HT29 cells): 334 nM
- Selectivity Index HT29 (HT29 cells): 1.4
- IC50 (A549 cells): 248 nM
- Selectivity Index A549 (A549 cells): 2
- IC50 (PC-3 cells): 528 nM
- Selectivity Index PC-3 (PC-3 cells): 0.9
- IC50 (Col208 cells): 122 nM
- Selectivity Index Col208 (Col208 cells): 4
- IC50 (SK-MEL-5 cells): 70 nM
- Selectivity Index SK-MEL-5 (SK-MEL-5 cells): 6
- IC50 (T-47D cells): 93 nM
- Selectivity Index T-47D (T-47D cells): 5
- IC50 [1]: 131 nM
- Selectivity Index DU145 [1]: 3
- IC50 (JAM ovarian cancer cells): 194 nM
- Selectivity Index JAM (JAM ovarian cancer cells): 2
- IC50 [2]: 122 nM
- Selectivity Index MCF-7 [2]: 4
- IC50 (SkMel28 melanoma cells): 146 nM
- Selectivity Index SK-MEL-28 (SkMel28 melanoma cells): 3
- IC50 [3]: 124 nM
- Selectivity Index CI80-13S [3]: 4
- IC50 [4]: 0.452 µM

SMILES: CC(C)COC(=O)N[C@@H](CCCCCC(=O)NO)C(=O)Nc1cccc2cccnc12 [Example 149]
- IC50 (MM96L melanoma cells; [5]): 0.023 µM
- IC50 (MM96L melanoma cells; [6]): 0.116 µM
- SI (Selectivity Index = IC50 (NFF)/IC50 (MM96L)) (MM96L melanoma cells): 3.5
- Selectivity Index MM96L (MM96L melanoma cells): 0.7
- IC50 (H520 cells): 129 nM
- Selectivity Index H520 (H520 cells): 0.6
- IC50 (HOP62 cells): 267 nM
- Selectivity Index HOP62 (HOP62 cells): 0.3
- IC50 (HT29 cells): 360 nM
- Selectivity Index HT29 (HT29 cells): 0.2
- IC50 (A549 cells): 291 nM
- Selectivity Index A549 (A549 cells): 0.3
- IC50 (PC-3 cells): 651 nM
- Selectivity Index PC-3 (PC-3 cells): 0.1
- IC50 (Col208 cells): 395 nM
- Selectivity Index Col208 (Col208 cells): 0.2
- IC50 (SK-MEL-5 cells): 100 nM
- Selectivity Index SK-MEL-5 (SK-MEL-5 cells): 0.8
- IC50 (T-47D cells): 198 nM
- Selectivity Index T-47D (T-47D cells): 0.4
- IC50 [1]: 130 nM
- Selectivity Index DU145 [1]: 0.6
- IC50 (JAM ovarian cancer cells): 221 nM
- Selectivity Index JAM (JAM ovarian cancer cells): 0.4
- IC50 [2]: 138 nM
- Selectivity Index MCF-7 [2]: 0.6
- IC50 (SkMel28 melanoma cells): 170 nM
- Selectivity Index SK-MEL-28 (SkMel28 melanoma cells): 0.5
- IC50 [3]: 149 nM
- Selectivity Index CI80-13S [3]: 0.5
- IC50 [4]: 0.081 µM

SMILES: O=C(CCCCC[C@H](NC(=O)c1ccc(Br)cc1)C(=O)Nc1ccc(-c2ccccc2)cc1)NO [Example 161]
- IC50 (MM96L melanoma cells; [5]): 0.074 µM
- IC50 (MM96L melanoma cells; [6]): 0.121 µM
- SI (Selectivity Index = IC50 (NFF)/IC50 (MM96L)) (MM96L melanoma cells): 2.5
- Selectivity Index MM96L (MM96L melanoma cells): 1.5
- IC50 (H520 cells): 117 nM
- Selectivity Index H520 (H520 cells): 1.6
- IC50 (HOP62 cells): 261 nM
- Selectivity Index HOP62 (HOP62 cells): 0.7
- IC50 (HT29 cells): 307 nM
- Selectivity Index HT29 (HT29 cells): 0.6
- IC50 (A549 cells): 335 nM
- Selectivity Index A549 (A549 cells): 0.6
- IC50 (PC-3 cells): 531 nM
- Selectivity Index PC-3 (PC-3 cells): 0.3
- IC50 (Col208 cells): 272 nM
- Selectivity Index Col208 (Col208 cells): 0.6
- IC50 (SK-MEL-5 cells): 102 nM
- Selectivity Index SK-MEL-5 (SK-MEL-5 cells): 1.8
- IC50 (T-47D cells): 197 nM
- Selectivity Index T-47D (T-47D cells): 0.9
- IC50 [1]: 149 nM
- Selectivity Index DU145 [1]: 1.2
- IC50 (JAM ovarian cancer cells): 182 nM
- Selectivity Index JAM (JAM ovarian cancer cells): 1.0
- IC50 [2]: 149 nM
- Selectivity Index MCF-7 [2]: 1.2
- IC50 (SkMel28 melanoma cells): 168 nM
- Selectivity Index SK-MEL-28 (SkMel28 melanoma cells): 1.1
- IC50 [3]: 158 nM
- Selectivity Index CI80-13S [3]: 1.2
- IC50 [4]: 0.185 µM
